Assay results reported in patent US6852316B2, “Cancer treatment” (Queen Mary & Westfield College, priority 1998, dated 2005).
“Also recorded” adds a separate entry of the source.

Assays:
Type in all cases: cell-based
β1 integrin [1] = experiment: Immunocytochemistry for β1 integrin expression in MCF-7 cancer cell line; conditions: MCF-7 cells treated with A-II at 10^−5 M, versus control
Description: Immunocytochemical straining of both receptors was based on the standard streptavidinbiotin peroxidase method. For the optimal working concentration of both antibodies serial dilutions were performed. The AT1R antibody 6313/G2 in the range 1:1 to 1:500 and for anti-β1 integrin between 1:10 and 1:500.
For integrin B1 receptor straining both with and without A-II pre-treatment, harvested cells were plated onto sterile microscope slides within slide culture wells (Heraeus Instruments GmbH, Osterode am Harz, Germany) and incubated with fresh BCM. When sub-confluent the medium was replaced with serum-free BCM to which was added Angiotensin-II (A-II), or not in the case of controls which were subjected to otherwise identical preparation and straining. Angiotensin-II (A-II) was added in the concentration range 10^−5M to 10^−9M and incubated for 24 hours. The medium was then removed, the slides rinsed with PBS, air dried and stored frozen as above.
The slides, prepared as above, were removed from frozen storage and placed directly into 100% acetone (British Drug Houses) at −10° C. for 10 minutes. They were then air-dried for 10 minutes and rehydrated in 0.05 M Tris-buffered saline (TBS)(0.05 M sodium chloride, 0.05 M Trizma base, 36 mM hydrochloric acid, pH 7.6) twice for 3 minutes each. […]

β1 integrin [2] = experiment: 125I labelling and immunoprecipitation of β1 integrin, SDS-PAGE autoradiography; conditions: MCF-7 cells, A-II 10^−5 M for 24 hours, compared to control, non-reducing conditions
Description: Immunoprecipitation is a technique for the detection and quantification of target protein. It comprises the five steps of radiolabelling of the cell-membrane proteins, cell lysis, formation of the specific antibody-antigen complexes, extraction of these complexes and analysis of the radiolabelled target proteins contained within the immunoprecipitation. All experiments were performed in triplicate.
For immunoprecipitation experiments, MCF-7 cells were cultured in 5% FBS-supplemented MEM. When sub-confluent, the medium was removed and the cells washed with phosphate buffered saline (PBS) (0.15 M sodium chloride, 20 mM sodium monophosphate; pH 7.5). The medium was then replaced with serum-free MEM and treated with angiotensin-II (A-II) at a concentration of 10^−5 M for 24 hours. Control cells were cultured in serum-free medium only. On this occasion the cells were harvested not by trypsinisation, which may impair the immunoprecipitation process, but with a cell scraper. They were then gently passed repeatedly through a narrow pipette, to break down cell clusters, and centrifuged at 900 rpm per ten minutes.
The cell pellets as above were taken up in PBS and counted with the haemocytometer. Trypan blue exclusion was employed so that 1-2×10^6 viable cells were taken up in each 1 ml aliquot. […]

breast cancer cells [3] = experiment: Invasion chamber assay, IGF-I stimulated breast cancer cell invasion
Description: The effect of angiotensin-II (A-II) in inhibiting growth factor-induced stimulated cancer cell invasiveness was studied as a model system and the results are shown in FIG. 3. The study was carried out using an invasion chamber in which two compartments are separated by a perforated membrane coated in matrix protein. A chemoattractant, IGF-I, was added to the medium on one side of the chamber, and the breast cancer cells to the other. Invasiveness was measured by counting the cells that migrated from one chamber to the other.

breast cancer cells [4] = experiment: Breast cancer cell growth in culture, light microscopy

## Asp-Arg-Val-Tyr-Ile-His-Pro-Phe (DRVYIHPF; Sequence Source Uncertain) [angiotensin-II]
β1 integrin [1]
  β1 integrin staining (expression of β1 integrin protein): increase in staining
β1 integrin [2]
  β1 integrin expression (density of protein band on gel autoradiograph): relative increase in density; also recorded: increased expression
Breast cancer cells [3]; A-II pre-treatment versus control, IGF-I chemoattractant
  reduction in mean invasion: tenfold reduction
Breast cancer cells [3]; cells treated with A-II prior to invasion assay, chemoattractant IGF-I, control 1.58%, p=0.0011
  mean invasion: 0.15%
Breast cancer cells [4]; breast cancer cells in culture
  stimulation of cell growth: did not stimulate cell growth
Breast cancer cells [4]; grown in presence of angiotensin-II versus control cultures, light microscopy
  size of cell clusters in culture: larger clusters of cells
